Consider three molecules from US20240360165A1, “INHIBITORS OF CYCLIN DEPENDENT KINASE 7 (CDK7)” (Syros Pharmaceuticals, Inc., priority 2016, published 2024).

The subject of one experiment is A673 cells. The experiment in a line: Inhibition of proliferation of A673 cells (CyQUANT, 72 hour). Format: cell-based, human. The note with it: A673 cells, 72 hour, CyQUANT; read-out: Inhibition of Proliferation of A673 Cells (calculated IC50). In a few lines:
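Proliferation read-out by CyQUANT after a 72 h exposure, compounds spanning 4 μM–[…] in half-log steps. A673 cells cultured at 37° C under 5% CO2 in DMEM supplemented with 10% FBS plus 1 mM sodium pyruvate.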

In another experiment the target is CDK2/Cyclin E1 complex (Homo sapiens, UniProt P24941). The experiment in a line: CDK2 inhibition assay (Caliper/LabChip EZ Reader kinase assay). Format: biochemical. To be noted: Table 1, CDK2/Cyclin E1 0.5 nM, ATP 2 mM, 35 min at 27° C. In short, it runs like this: (§1)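 Activity read as fluorescent peptide conversion on a LabChip EZ Reader. For CDK2/Cyclin E1 (0.5 nM), substrate was 5-FAM-CDK7tide (2 μM) with 2 mM MgCl2; for CDK9/Cyclin T1 (8 nM), 5-FAM-CDK9tide (2 μM) with 10 mM MgCl2.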

In another experiment the test system is HCC70 cells. The experiment in a line: Inhibition of proliferation of HCC70 cells (CyQUANT Direct Cell Proliferation Assay, 72 hour). The note with it: Homo sapiens, HCC70, 72 h, read-out: Inhibition of Proliferation of HCC70 Cells (calculated IC50). Format: cell-based, human. In a few lines: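 Human triple-negative breast cancer HCC70 cells cultured at 37° C, 5% CO2, with compound for 72 hour. Anti-proliferative effect read by CyQUANT Direct Cell Proliferation Assay. Dinaciclib, a CDK inhibitor analog and triptolide served as positive controls.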

The target of experiment [1] is T1, CDK12 (aa686-1082)/Cyclin K complex (Homo sapiens, UniProt Q9NYV4).
T1 construct: CDK12 (aa686-1082)/Cyclin K complex
As to the kind of experiment: CDK12 inhibition assay (Caliper/LabChip EZ Reader kinase assay). Format: biochemical. The note with it: Table 1, CDK12 (aa686-1082)/Cyclin K 50 nM, ATP 2 mM, 3 hr at 27° C.

A further experiment deals with CDK9/Cyclin T1 complex (Homo sapiens, UniProt P50750). The experiment in a line: CDK9 inhibition assay (Caliper/LabChip EZ Reader kinase assay). To be noted: Table 1, CDK9/Cyclin T1 8 nM, ATP 2 mM, 15 min at 27° C. Format: biochemical. In a few lines: as §1
The target in experiment [2] is CDK7/Cyclin H/MAT1 complex (Homo sapiens, UniProt P50613). As to the kind of experiment: CDK7 inhibition assay (Caliper/LabChip EZ Reader kinase assay). It is filed as biochemical. To be noted: Table 1, CDK7/Cyclin H/MAT1 6 nM, ATP 2 mM, 35 min at 27° C. In a few lines:
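A Perkin Elmer Caliper/LabChip EZ Reader (Waltham, MA) platform served as the basis for this CDK7 kinase inhibition assay. The work was carried out by Biortus Biosciences, located in Jiangyin, Jiangsu Province, P.R. of China. Each CDK studied had its own kinase assay, and compounds were evaluated for their ability to block CDK7 activity.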

CDK9/Cyclin T1 complex, sequence (P50750 whole entry, species assumed): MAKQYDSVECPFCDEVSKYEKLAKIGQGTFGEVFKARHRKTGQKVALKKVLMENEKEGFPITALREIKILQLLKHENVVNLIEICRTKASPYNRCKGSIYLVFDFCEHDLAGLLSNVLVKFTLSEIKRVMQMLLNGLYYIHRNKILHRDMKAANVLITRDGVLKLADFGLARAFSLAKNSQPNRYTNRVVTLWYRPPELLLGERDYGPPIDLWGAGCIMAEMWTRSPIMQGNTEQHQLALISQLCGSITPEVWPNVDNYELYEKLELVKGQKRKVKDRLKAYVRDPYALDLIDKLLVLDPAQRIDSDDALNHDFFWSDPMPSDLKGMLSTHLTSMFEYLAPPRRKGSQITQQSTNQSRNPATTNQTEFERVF
CDK9/Cyclin T1 complex, sequence (O60563 whole entry partner, species assumed): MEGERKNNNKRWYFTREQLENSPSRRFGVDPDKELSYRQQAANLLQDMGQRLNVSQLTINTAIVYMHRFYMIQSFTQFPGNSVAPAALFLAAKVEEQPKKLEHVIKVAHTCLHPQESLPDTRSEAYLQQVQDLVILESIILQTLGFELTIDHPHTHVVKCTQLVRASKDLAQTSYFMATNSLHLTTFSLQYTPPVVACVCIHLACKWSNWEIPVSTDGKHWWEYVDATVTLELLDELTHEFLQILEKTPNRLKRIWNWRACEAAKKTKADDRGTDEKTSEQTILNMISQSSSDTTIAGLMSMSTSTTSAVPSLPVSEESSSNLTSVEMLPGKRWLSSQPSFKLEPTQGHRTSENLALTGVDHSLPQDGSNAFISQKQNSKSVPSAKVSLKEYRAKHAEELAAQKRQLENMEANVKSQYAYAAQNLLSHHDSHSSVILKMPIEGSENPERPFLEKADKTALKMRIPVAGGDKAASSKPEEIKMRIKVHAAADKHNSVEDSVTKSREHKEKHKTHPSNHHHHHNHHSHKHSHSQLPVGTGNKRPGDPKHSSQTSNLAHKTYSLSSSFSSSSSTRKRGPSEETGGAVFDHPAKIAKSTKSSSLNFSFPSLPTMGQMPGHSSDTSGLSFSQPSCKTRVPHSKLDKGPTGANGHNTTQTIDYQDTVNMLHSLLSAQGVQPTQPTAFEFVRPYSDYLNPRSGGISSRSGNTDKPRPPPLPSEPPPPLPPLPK
T1 sequence (Q9NYV4 686-1082, species assumed): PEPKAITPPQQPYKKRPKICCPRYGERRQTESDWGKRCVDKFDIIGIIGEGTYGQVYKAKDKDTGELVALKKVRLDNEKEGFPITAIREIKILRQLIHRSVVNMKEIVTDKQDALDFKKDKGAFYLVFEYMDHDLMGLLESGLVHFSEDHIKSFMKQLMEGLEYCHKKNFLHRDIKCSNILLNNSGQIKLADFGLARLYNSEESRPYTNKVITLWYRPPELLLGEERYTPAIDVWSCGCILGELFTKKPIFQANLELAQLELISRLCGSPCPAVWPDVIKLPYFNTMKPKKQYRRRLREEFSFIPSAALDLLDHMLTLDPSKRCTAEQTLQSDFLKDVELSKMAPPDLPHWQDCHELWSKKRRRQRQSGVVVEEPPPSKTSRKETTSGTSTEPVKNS
T1 sequence (O75909 whole entry partner, species assumed, the tested form may be a part): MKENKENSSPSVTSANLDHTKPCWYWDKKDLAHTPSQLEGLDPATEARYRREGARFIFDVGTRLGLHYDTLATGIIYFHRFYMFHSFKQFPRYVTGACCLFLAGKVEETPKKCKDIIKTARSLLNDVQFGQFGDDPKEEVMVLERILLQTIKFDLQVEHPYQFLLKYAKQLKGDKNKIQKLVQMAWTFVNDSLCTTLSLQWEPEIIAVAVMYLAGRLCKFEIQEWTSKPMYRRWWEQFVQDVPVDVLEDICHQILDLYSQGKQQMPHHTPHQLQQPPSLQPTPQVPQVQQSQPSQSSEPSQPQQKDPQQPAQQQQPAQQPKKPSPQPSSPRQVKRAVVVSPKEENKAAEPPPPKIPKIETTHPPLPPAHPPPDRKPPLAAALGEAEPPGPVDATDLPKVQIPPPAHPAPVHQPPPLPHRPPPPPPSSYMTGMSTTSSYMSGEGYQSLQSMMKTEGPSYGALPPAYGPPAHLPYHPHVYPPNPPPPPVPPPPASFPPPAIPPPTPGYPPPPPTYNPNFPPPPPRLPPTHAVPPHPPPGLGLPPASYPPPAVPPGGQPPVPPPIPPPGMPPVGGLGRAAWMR
CDK7/Cyclin H/MAT1 complex, sequence (P50613 whole entry, species assumed): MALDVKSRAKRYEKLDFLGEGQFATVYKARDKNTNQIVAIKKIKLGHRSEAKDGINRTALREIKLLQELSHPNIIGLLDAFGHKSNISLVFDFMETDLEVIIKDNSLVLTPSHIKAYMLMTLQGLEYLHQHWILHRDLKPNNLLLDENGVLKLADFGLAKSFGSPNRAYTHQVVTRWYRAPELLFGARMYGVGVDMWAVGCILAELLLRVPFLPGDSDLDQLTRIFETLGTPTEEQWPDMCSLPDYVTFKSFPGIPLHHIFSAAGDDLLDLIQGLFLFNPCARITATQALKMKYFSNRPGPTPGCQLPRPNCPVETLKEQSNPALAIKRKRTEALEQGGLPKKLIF
CDK7/Cyclin H/MAT1 complex, sequence (P51946 whole entry partner, species assumed): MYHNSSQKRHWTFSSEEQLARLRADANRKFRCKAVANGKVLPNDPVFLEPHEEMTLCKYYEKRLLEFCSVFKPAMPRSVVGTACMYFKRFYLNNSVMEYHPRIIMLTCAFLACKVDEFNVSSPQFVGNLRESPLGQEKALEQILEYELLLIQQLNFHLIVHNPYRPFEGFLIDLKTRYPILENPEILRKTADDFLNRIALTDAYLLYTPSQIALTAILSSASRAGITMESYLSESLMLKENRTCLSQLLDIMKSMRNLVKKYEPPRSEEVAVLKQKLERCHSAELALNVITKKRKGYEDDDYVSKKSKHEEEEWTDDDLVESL
CDK7/Cyclin H/MAT1 complex, sequence (P51948 whole entry partner, species assumed): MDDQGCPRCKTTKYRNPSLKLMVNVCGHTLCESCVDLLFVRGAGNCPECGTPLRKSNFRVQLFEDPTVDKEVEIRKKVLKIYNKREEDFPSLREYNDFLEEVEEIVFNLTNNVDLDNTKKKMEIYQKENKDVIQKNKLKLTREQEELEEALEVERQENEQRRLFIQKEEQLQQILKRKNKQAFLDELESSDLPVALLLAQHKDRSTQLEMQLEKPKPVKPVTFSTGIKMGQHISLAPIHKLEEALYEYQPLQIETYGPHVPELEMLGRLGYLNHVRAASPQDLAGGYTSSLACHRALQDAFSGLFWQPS

Regarding `O=S1(=O)CCn2cc(-c3nc(N[C@H]4CCCNC4)ncc3C(F)(F)F)c3cccc1c32` [Compound 348, (S)-6-(2-(piperidin-3-ylamino)-5-(trifluoromethyl)pyrimidin-4-yl)-2,3-dihydro-[1,4]thiazino[2,3,4-hi]indole 1,1-dioxide], the IC50 is 20 to 200 nM in the experiment with A673 cells; above 5000 nM against CDK2/Cyclin E1 complex; 200 to 5000 nM against CDK2/Cyclin E1 complex (listed as 117); 100 to 1000 nM in the experiment with HCC70 cells; above 5000 nM in experiment [1]; 200 to 5000 nM in experiment [1] (listed as 117). In addition, the IC50 was above 5000 nM against CDK9/Cyclin T1 complex, 200 to 5000 nM against CDK9/Cyclin T1 complex (listed as 117), 20 to 200 nM in experiment [2] and 20 to 200 nM in experiment [2] (listed as 117).
With `CCN1C[C@@H](Nc2ncc(C(F)(F)F)c(-c3c[nH]c4cc(S(C)(=O)=O)ccc34)n2)CC(C)(C)C1` [Compound 369, N-[(3S)-1-ethyl-5,5-dimethyl-3-piperidyl]-4-(6-methylsulfonyl-1H-indol-3-yl)-5-(trifluoromethyl)pyrimidin-2-amine], the IC50 in the experiment on A673 cells was 20 to 200 nM; against CDK2/Cyclin E1 complex it was above 5000 nM; in the experiment with HCC70 cells, 100 to 1000 nM; in experiment [1] it was above 5000 nM; in experiment [1] (listed as 129) it was 200 to 5000 nM; against CDK9/Cyclin T1 complex, above 5000 nM. In addition, the IC50 in experiment [2] and in experiment [2] (listed as 129) was 20 to 200 nM throughout.
With `N#Cc1ccc2c(-c3nc(N[C@@H]4CNC[C@H](O)C4)ncc3C(F)(F)F)c[nH]c2c1` [Compound 370, 3-[2-[[(3S,5R)-5-hydroxy-3-piperidyl]amino]-5-(trifluoromethyl)pyrimidin-4-yl]-1H-indole-6-carbonitrile], the IC50 was 200 to 5000 nM with A673 cells; above 5000 nM against CDK2/Cyclin E1 complex; 100 to 1000 nM in the experiment on HCC70 cells; 200 to 5000 nM in experiment [1]; above 5000 nM in experiment [1] (listed as 130); above 5000 nM on CDK9/Cyclin T1 complex. For the same molecule, the IC50 in experiment [2] is 20 to 200 nM; in experiment [2] (listed as 130), above 5000 nM.
